Source: paper PMC11984392, “EphA2-targeted alpha-particle theranostics for enhancing PDAC treatment” (Theranostics, 2025)
Like-named read-outs stand apart in the source and are kept apart here. *1 amine or outer side, *2 acyl side, *3 side chain or, on linkers, in order; H or OH if unused. Where a SMILES comes first, the peptide text is derived from it. Bridges are numbered along the chain shown (N, C = ends). [ ]: non-standard residue; d: D form. The star is where a group is joined. TATA = O=C(CC[*:1])N1CN(C(=O)CC[*:2])CN(C(=O)CC[*:3])C1; NOTA = O=C(O)CN1CCN(CC(=O)O)CCN(CC(=O)*)CC1; Hyp = O=C(O)[C@@H]1C[C@@H](O)CN1; hArg = N=C(N)NCCCC[C@H](N)C(=O)O; PEG2 = NCCOCCOCCC(=O)O; Sar = CNCC(=O)O

Columns and labels:
Ex vivo biodistribution = type: in vivo, NSG mice; settings: both sexes, NSG, mouse, total radioactivity, 60 min p.i., mean ± SEM (n = 4 or 5)
Procedure: Animal studies were performed under Johns Hopkins University Animal Care and Use Committee (ACUC)-approved protocol (Principal investigator: Sridhar Nimmagadda, Ph.D. and Protocol number M021M175). Male and Female NSG mice (5-6 weeks old) were purchased from JHU immunocompromised core and used to establish xenografts by administering cells subcutaneously (top right flank, unless otherwise noted) to form various tumor models within 3-4 weeks. Following cell numbers were used: Panc1, AsPC1, BxPC3 (1 M), Hs766T and SU8686 (2 M), CFPAC and Panc1005 (5 M). Imaging or biodistribution studies (n = 3-5) were conducted on mice with tumor volumes of 100-200 mm^3. The Panc1 orthotopic tumor model was established by surgically implanting a 3-5 mm^3 section of Panc1 tumor xenograft directly onto the pancreas. The implanted tumors were allowed to grow and were ready for imaging after 10 days of implantation.
Mice with 100-200 mm^3 tumor volume were used for ex vivo biodistribution studies. For radiotracer pharmacokinetics and dosimetry studies, mice with Panc1 tumor xenograft received ~80 µCi (2.96 MBq) [^68Ga]AJ201 and were sacrificed at pre-determined time points (5, 30, 60, 90 and 120 min). All other mice were injected with ~50 µCi (1.85 MBq; 0.2 to 0.5 nmol) Ga-68 labeled radiotracer and were sacrificed at 60 min. The selected tissues were collected, weighed, counted, and their %ID/g values calculated for biodistribution analysis. For pharmacokinetics and dosimetry studies, selected tissues included blood, muscle, tumor, thymus, heart, lung, liver, pancreas, stomach, small intestine, large intestine, spleen, adrenals, kidney, bladder, femur, brain and tumor xenografts. For other studies, selected tissues were blood, muscle, tumor, heart, lung, liver, pancreas, small intestine, spleen, kidney.

[1] = In vitro stability of radiotracers in human serum; type: in vitro ADME; settings: radio-RP-HPLC after ultrafiltration (10 kDa)
Procedure: The stability of the radiotracers was assessed in saline and human serum at 37 °C to mimic physiological conditions. Approximately 1.5 mCi of the radiotracer, prepared in 100-150 µL of saline, was added to 0.5 mL of either saline or human serum in separate microcentrifuge tubes. The mixtures were gently vortexed and then incubated at 37 °C in an incubator. At predetermined time-points (1, 2, and 3 h), 100 µL aliquots were collected from the incubation mixtures for analysis. For serum samples, proteins were removed by adding 100 µL of saline and 50 µL of ethanol, followed by ultrafiltration using 10 kDa centrifugal filters made of regenerative cellulose membranes. The filtration process was performed by centrifugation at 14,000 rpm for 10 min and repeated once more to ensure complete protein removal. The filtrate was collected for analysis. The radiochemical integrity of the radiotracer in both saline and serum was evaluated using radio-RP-HPLC.

Compound `CC(C)C[C@@H]1NC(=O)[C@@H]2CSCCC(=O)N3CN(CN(C3)C(=O)CCSC[C@H](NC(=O)[C@H](CC(=O)O)NC(=O)[C@H](CCCCNC(=N)N)NC(=O)[C@H](C)NC(=O)CNC(=O)CN(C)C(=O)CN(C)C(=O)CN(C)C(=O)[C@H](CCCNC(=N)N)NC(=O)CNC(=O)CCOCCOCCNC(=O)CN3CCN(CC(=O)O)CCN(CC(=O)O)CC3)C(=O)N3C[C@H](O)C[C@H]3C(=O)N[C@@H](CC(C)C)C(=O)N[C@@H](C(C)C)C(=O)N[C@@H](CC(N)=O)C(=O)N3CCC[C@H]3C(=O)N[C@@H](CC(C)C)C(=O)N2)C(=O)CCSC[C@@H](C(N)=O)NC(=O)[C@H](CCCCNC(=N)N)NC(=O)[C@H](Cc2c[nH]c3ccccc23)NC(=O)[C@@H](CC(=O)O)NC(=O)[C@@H]2CCCN2C(=O)[C@H](Cc2c[nH]cn2)NC1=O` [[^68Ga]AJ201, metal not drawn] ({NOTA-PEG2}-GR[Sar][Sar][Sar]GA[hArg]DC[Hyp]LVNPLCLHP[dD]W[hArg]C-NH2; linker 10-17-24 via TATA) has a tissue uptake at 1 h (Ex vivo biodistribution; pancreas, CFPAC xenograft, read-out: Pancreas uptake) of 0.32 ± 0.07 %ID/g, a tissue uptake at 1 h (Ex vivo biodistribution; pancreas, Hs766T xenograft, read-out: Pancreas uptake) of 0.61 ± 0.22 %ID/g and a tissue uptake at 1 h (Ex vivo biodistribution; pancreas, Panc1005 xenograft, read-out: Pancreas uptake) of 0.21 ± 0.03 %ID/g. It also gave a tissue uptake at 1 h (Ex vivo biodistribution; pancreas, Su8686 xenograft, read-out: Pancreas uptake) of 0.22 ± 0.05 %ID/g, a tissue uptake at 1 h (Ex vivo biodistribution; small intestine, AsPC1 xenograft, read-out: Small intestine uptake) of 1.12 ± 0.08 %ID/g and a tissue uptake at 1 h (Ex vivo biodistribution; small intestine, BxPC3 xenograft, read-out: Small intestine uptake) of 0.32 ± 0.02 %ID/g. It also gave a tissue uptake at 1 h (Ex vivo biodistribution; small intestine, Hs766T xenograft, read-out: Small intestine uptake) of 0.62 ± 0.02 %ID/g, a tissue uptake at 1 h (Ex vivo biodistribution; small intestine, Panc1005 xenograft, read-out: Small intestine uptake) of 0.25 ± 0.03 %ID/g and a tissue uptake at 1 h (Ex vivo biodistribution; small intestine, Su8686 xenograft, read-out: Small intestine uptake) of 0.29 ± 0.05 %ID/g. It also gave a tissue uptake at 1 h (Ex vivo biodistribution; spleen, AsPC1 xenograft, read-out: Spleen uptake) of 1.61 ± 0.11 %ID/g, a tissue uptake at 1 h (Ex vivo biodistribution; spleen, BxPC3 xenograft, read-out: Spleen uptake) of 0.64 ± 0.05 %ID/g and a tissue uptake at 1 h (Ex vivo biodistribution; spleen, CFPAC xenograft, read-out: Spleen uptake) of 0.87 ± 0.15 %ID/g. It also gave a tissue uptake at 1 h (Ex vivo biodistribution; spleen, Hs766T xenograft, read-out: Spleen uptake) of 2.75 ± 0.65 %ID/g, a tissue uptake at 1 h (Ex vivo biodistribution; spleen, Panc1005 xenograft, read-out: Spleen uptake) of 0.52 ± 0.05 %ID/g and a tissue uptake at 1 h (Ex vivo biodistribution; spleen, Su8686 xenograft, read-out: Spleen uptake) of 0.6 ± 0.16 %ID/g. The tissue uptake at 1 h (Ex vivo biodistribution; tumor, 50 uCi, CFPAC xenograft, read-out: Tumor uptake) was 2.4 ± 0.2 %ID/g, the tissue uptake at 1 h (Ex vivo biodistribution; tumor, AsPC1 xenograft, read-out: Tumor uptake) was 4.01 ± 0.46 %ID/g and the tissue uptake at 1 h (Ex vivo biodistribution; tumor, BxPC3 xenograft, read-out: Tumor uptake) was 2.72 ± 0.37 %ID/g. The tissue uptake at 1 h (Ex vivo biodistribution; tumor, Hs766T xenograft, read-out: Tumor uptake) was 7.97 ± 2.83 %ID/g, the tissue uptake at 1 h (Ex vivo biodistribution; tumor, Panc1005 xenograft, read-out: Tumor uptake) was 5.31 ± 0.9 %ID/g and the tissue uptake at 1 h (Ex vivo biodistribution; tumor, Su8686 xenograft, read-out: Tumor uptake) was 7.66 ± 1 %ID/g. The tissue to tissue ratio at 1 h (Ex vivo biodistribution; tumor/blood, AsPC1 xenograft, read-out: Tumor/blood ratio) was 1.2 ± 0.06, the tissue to tissue ratio at 1 h (Ex vivo biodistribution; tumor/blood, BxPC3 xenograft, read-out: Tumor/blood ratio) was 4.86 ± 0.92 and the tissue to tissue ratio at 1 h (Ex vivo biodistribution; tumor/blood, CFPAC xenograft, read-out: Tumor/blood ratio) was 4.53 ± 0.9. For the same compound, the tissue to tissue ratio at 1 h (Ex vivo biodistribution; tumor/blood, Hs766T xenograft, read-out: Tumor/blood ratio) was 5.47 ± 0.81, the tissue to tissue ratio at 1 h (Ex vivo biodistribution; tumor/blood, Panc1005 xenograft, read-out: Tumor/blood ratio) was 12.9 ± 2.38 and the tissue to tissue ratio at 1 h (Ex vivo biodistribution; tumor/blood, Su8686 xenograft, read-out: Tumor/blood ratio) was 14.2 ± 3.89. The tissue to tissue ratio at 1 h (Ex vivo biodistribution; tumor/muscle, AsPC1 xenograft, read-out: Tumor/Muscle ratio) was 9.95 ± 1.49, the tissue to tissue ratio at 1 h (Ex vivo biodistribution; tumor/muscle, BxPC3 xenograft, read-out: Tumor/Muscle ratio) was 15.2 ± 2.14 and the tissue to tissue ratio at 1 h (Ex vivo biodistribution; tumor/muscle, CFPAC xenograft, read-out: Tumor/Muscle ratio) was 12.1 ± 1.45. For the same compound, the tissue to tissue ratio at 1 h (Ex vivo biodistribution; tumor/muscle, Hs766T xenograft, read-out: Tumor/Muscle ratio) was 17.2 ± 2.33, the tissue to tissue ratio at 1 h (Ex vivo biodistribution; tumor/muscle, Panc1005 xenograft, read-out: Tumor/Muscle ratio) was 50.1 ± 10.2 and the tissue to tissue ratio at 1 h (Ex vivo biodistribution; tumor/muscle, Su8686 xenograft, read-out: Tumor/Muscle ratio) was 58 ± 11.5. The tissue to tissue ratio at 1 h (Ex vivo biodistribution; tumor/pancreas, AsPC1 xenograft, read-out: Tumor/Pancreas ratio) was 6.23 ± 0.65, the tissue to tissue ratio at 1 h (Ex vivo biodistribution; tumor/pancreas, BxPC3 xenograft, read-out: Tumor/Pancreas ratio) was 11 ± 1.71 and the tissue to tissue ratio at 1 h (Ex vivo biodistribution; tumor/pancreas, CFPAC xenograft, read-out: Tumor/Pancreas ratio) was 8.68 ± 1.24. The tissue to tissue ratio at 1 h (Ex vivo biodistribution; tumor/pancreas, Hs766T xenograft, read-out: Tumor/Pancreas ratio) was 13.8 ± 2.3, the tissue to tissue ratio at 1 h (Ex vivo biodistribution; tumor/pancreas, Panc1005 xenograft, read-out: Tumor/Pancreas ratio) was 26.9 ± 5.62 and the tissue to tissue ratio at 1 h (Ex vivo biodistribution; tumor/pancreas, Su8686 xenograft, read-out: Tumor/Pancreas ratio) was 39.8 ± 7.21. The “Stability in human serum (radio-HPLC finding)” value ([1]; 37 °C, 1, 2 and 3 h, ~1.5 mCi in 0.5 mL) was “stable without noticeable degradation or impurity formation” and the “Time of stability in human serum” value ([1]; 37 °C) was “at least 3 h”.
